In article PMC2688486, “Xylose reductase from Pichia stipitis with altered coenzyme preference improves ethanolic xylose fermentation by recombinant Saccharomyces cerevisiae” (Biotechnology for Biofuels, 2009):
Residue numbers refer to the chain shown, from its start. Names and notes keep the numbering of the source.

B1: P. stipitis XR (xylose reductase, XYL1) (Scheffersomyces stipitis CBS 6054) (protein)
chain: MPSIKLNSGYDMPAVGFGCWKVDVDTCSEQIYRAIKTGYRLFDGAEDYANEKLVGAGVKKAIDEGIVKREDLFLTSKLWNNYHHPDNVEKALNRTLSDLQVDYVDLFLIHFPVTFKFVPLEEKYPPGFYCGKGDNFDYEDVPILETWKALEKLVKAGKIRSIGVSNFPGALLLDLLRGATIKPSVLQVEHHPYLQQPRLIEFAQSRGIAVTAYSSFGPQSFVELNQGRALNTSPLFENETIKAIAAKHGKSPAQVLLRWSSQRGIAIIPKSNTVPRLLENKDVNSFDLDEQDFADIAKLDINLRFNDPWDWDKIPIFV
notes: native full-length XYL1 from plasmid pY7, chromosomally integrated in S. cerevisiae TMB 3044 (gre3 deleted); crude cell extract
B2: P. stipitis XR (xylose reductase, XYL1) (Scheffersomyces stipitis CBS 6054; K270R) (protein)
chain: B1 chain with K270R
notes: as for B1
B3: P. stipitis XR (xylose reductase, XYL1) (Scheffersomyces stipitis CBS 6054; K270M) (protein)
chain: B1 chain with K270M
notes: as for B1

What was measured:
[1] = molecular target: T1, P. stipitis XR (xylose reductase, XYL1) (Scheffersomyces stipitis, UniProt P31867, K270M); assay: NAD(P)H absorbance at […] nm, initial rates fitted to compulsory-order ternary-complex equation; format: biochemical; details: crude extract, xylose co-substrate varied, pH 7.0 triethanolamine, 30°C; kinetic dissociation constant; read-out: KiA
T1 construct: native full-length XYL1 from plasmid pY7, chromosomally integrated in S. cerevisiae TMB 3044 (gre3 deleted); crude cell extract
T1 sequence (P31867 whole entry K270M): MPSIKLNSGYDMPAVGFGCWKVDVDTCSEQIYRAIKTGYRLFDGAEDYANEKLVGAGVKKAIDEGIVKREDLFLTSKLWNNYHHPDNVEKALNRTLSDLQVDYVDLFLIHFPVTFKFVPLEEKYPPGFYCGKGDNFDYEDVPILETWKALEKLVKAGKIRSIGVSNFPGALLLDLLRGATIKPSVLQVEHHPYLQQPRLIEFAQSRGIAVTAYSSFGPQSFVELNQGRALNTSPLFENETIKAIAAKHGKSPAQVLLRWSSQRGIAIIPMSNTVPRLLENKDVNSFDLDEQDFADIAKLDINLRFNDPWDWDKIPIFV

[2] = molecular target: T2, P. stipitis XR (xylose reductase, XYL1) (Scheffersomyces stipitis, UniProt P31867, K270R); assay: as above; format: biochemical; details: crude extract, xylose co-substrate varied, pH 7.0 triethanolamine, 30°C; kinetic dissociation constant; read-out: KiA
T2 construct: native full-length XYL1 from plasmid pY7, chromosomally integrated in S. cerevisiae TMB 3044 (gre3 deleted); crude cell extract
T2 sequence (P31867 whole entry K270R): as the sequence (P31867 whole entry K270M) above, with M270R counted along it

[3] = molecular target: T3, P. stipitis XR (xylose reductase, XYL1) (Scheffersomyces stipitis, UniProt P31867); assay: as above; format: biochemical; details: crude extract, xylose co-substrate varied, pH 7.0 triethanolamine, 30°C; kinetic dissociation constant; read-out: KiA
T3 construct: native full-length XYL1 from plasmid pY7, chromosomally integrated in S. cerevisiae TMB 3044 (gre3 deleted); crude cell extract

[4] = substrate: NC(=O)C1=CN([C@@H]2O[C@H](COP(=O)(O)OP(=O)(O)OC[C@H]3O[C@@H](n4cnc5c(N)ncnc54)[C@H](O)[C@@H]3O)[C@@H](O)[C@H]2O)C=CC1; assay: cells, lysate or membranes; format: biochemical, Scheffersomyces stipitis; details: crude extract, xylose co-substrate varied, pH 7.0 triethanolamine, 30°C, varied: cofactor
[5] = substrate: NC(=O)C1=CN([C@@H]2O[C@H](COP(=O)(O)OP(=O)(O)OC[C@H]3O[C@@H](n4cnc5c(N)ncnc54)[C@H](OP(=O)(O)O)[C@@H]3O)[C@@H](O)[C@H]2O)C=CC1; assay: cells, lysate or membranes; format: biochemical, Scheffersomyces stipitis; details: crude extract, xylose co-substrate varied, pH 7.0 triethanolamine, 30°C, varied: cofactor

Molecule | Kd [1] [µM] | Kd [2] [µM] | Kd [3] [µM] | Km [4] [µM] | Km [5] [µM]
NC(=O)C1=CN([C@@H]2O[C@H](COP(=O)(O)OP(=O)(O)OC[C@H]3O[C@@H](n4cnc5c(N)ncnc54)[C@H](OP(=O)(O)O)[C@@H]3O)[C@@H](O)[C@H]2O)C=CC1 [NADPH] | 293 ± 169 | 22.9 ± 17.6 | 1.4 ± 1.2 | – | –
NC(=O)C1=CN([C@@H]2O[C@H](COP(=O)(O)OP(=O)(O)OC[C@H]3O[C@@H](n4cnc5c(N)ncnc54)[C@H](O)[C@@H]3O)[C@@H](O)[C@H]2O)C=CC1 [NADH] | – | 57.4 ± 34.9 | 25.9 ± 11.7 | – | –
B1 | – | – | – | 28.7 ± 5.4 | 1.0 ± 0.6
B2 | – | – | – | 62.8 ± 18.7 | 25.8 ± 9.1
B3 | – | – | – | – | 290 ± 78.6
